Test results from US9636418B2 (priority 2013, dated 2017).
Where “and” joins values, the source holds several entries; their conditions need not be identical. Equal values may be shown once. Read-outs that look alike come from different tables or passages of the source.

Key:
Experiment in all cases: cell-based
hNav1.4 [1] = target: T1, hNav1.4 (Homo sapiens, UniProt P35499)
hNav1.4 [2] = target: T1, hNav1.4; conditions: ratio of IonWorks Quattro IC50 values
hNav1.7 = hNav1.7 (Homo sapiens, UniProt Q15858); assay type: cell-based; conditions: PatchXpress; * = at high concentrations compound would wash off slowly or not at all; read-out: PX hNav1.7 Tonic IC50
Chain of hNav1.7 (Q15858 whole entry): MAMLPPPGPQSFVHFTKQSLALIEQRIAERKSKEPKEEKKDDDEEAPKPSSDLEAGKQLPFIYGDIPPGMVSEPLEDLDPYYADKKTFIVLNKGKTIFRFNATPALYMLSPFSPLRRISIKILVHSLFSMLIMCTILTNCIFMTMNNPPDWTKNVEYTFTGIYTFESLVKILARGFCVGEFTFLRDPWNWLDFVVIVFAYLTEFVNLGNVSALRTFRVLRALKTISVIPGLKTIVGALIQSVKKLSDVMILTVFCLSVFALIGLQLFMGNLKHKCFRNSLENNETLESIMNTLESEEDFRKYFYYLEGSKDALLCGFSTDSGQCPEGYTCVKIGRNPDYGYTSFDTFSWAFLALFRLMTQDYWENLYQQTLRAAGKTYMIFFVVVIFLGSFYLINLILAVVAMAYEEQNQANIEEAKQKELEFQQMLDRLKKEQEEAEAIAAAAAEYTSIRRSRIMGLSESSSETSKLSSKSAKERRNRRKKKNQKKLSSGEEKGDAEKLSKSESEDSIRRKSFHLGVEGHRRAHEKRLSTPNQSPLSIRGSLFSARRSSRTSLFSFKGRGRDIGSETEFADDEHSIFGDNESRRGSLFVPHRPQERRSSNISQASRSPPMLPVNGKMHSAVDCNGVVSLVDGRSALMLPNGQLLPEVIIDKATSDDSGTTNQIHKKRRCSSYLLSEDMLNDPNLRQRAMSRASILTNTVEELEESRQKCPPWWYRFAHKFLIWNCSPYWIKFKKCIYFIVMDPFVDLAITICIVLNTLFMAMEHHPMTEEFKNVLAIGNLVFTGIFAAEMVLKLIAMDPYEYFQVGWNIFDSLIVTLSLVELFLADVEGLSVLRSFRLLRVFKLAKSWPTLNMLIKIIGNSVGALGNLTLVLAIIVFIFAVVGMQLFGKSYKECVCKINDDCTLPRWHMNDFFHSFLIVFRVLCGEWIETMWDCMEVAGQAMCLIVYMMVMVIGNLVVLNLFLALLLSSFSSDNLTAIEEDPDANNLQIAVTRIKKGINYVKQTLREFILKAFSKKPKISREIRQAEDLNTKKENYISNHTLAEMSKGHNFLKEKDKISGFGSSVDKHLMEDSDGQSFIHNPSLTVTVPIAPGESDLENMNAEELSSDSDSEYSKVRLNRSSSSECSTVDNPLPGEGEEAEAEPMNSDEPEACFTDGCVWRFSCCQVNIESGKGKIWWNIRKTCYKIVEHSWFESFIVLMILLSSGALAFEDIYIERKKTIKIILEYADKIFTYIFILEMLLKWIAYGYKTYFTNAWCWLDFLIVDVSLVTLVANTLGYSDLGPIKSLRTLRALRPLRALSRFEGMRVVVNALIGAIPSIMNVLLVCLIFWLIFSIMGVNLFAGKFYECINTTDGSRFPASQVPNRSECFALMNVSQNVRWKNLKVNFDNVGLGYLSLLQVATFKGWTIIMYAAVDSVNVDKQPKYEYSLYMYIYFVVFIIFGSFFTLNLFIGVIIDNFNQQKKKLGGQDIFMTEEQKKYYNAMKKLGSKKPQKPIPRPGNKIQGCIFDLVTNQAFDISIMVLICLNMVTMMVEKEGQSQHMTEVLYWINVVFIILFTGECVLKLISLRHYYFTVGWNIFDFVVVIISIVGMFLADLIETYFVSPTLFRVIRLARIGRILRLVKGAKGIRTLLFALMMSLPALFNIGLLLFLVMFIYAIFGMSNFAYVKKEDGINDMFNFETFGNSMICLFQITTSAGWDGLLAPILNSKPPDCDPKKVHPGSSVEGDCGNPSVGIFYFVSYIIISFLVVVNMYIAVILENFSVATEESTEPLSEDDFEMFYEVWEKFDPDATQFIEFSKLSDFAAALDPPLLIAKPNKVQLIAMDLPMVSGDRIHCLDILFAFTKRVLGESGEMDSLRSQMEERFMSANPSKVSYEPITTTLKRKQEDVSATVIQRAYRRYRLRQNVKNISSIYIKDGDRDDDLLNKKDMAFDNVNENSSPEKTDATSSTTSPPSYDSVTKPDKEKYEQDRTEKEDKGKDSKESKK

T1 sequence (P35499 whole entry): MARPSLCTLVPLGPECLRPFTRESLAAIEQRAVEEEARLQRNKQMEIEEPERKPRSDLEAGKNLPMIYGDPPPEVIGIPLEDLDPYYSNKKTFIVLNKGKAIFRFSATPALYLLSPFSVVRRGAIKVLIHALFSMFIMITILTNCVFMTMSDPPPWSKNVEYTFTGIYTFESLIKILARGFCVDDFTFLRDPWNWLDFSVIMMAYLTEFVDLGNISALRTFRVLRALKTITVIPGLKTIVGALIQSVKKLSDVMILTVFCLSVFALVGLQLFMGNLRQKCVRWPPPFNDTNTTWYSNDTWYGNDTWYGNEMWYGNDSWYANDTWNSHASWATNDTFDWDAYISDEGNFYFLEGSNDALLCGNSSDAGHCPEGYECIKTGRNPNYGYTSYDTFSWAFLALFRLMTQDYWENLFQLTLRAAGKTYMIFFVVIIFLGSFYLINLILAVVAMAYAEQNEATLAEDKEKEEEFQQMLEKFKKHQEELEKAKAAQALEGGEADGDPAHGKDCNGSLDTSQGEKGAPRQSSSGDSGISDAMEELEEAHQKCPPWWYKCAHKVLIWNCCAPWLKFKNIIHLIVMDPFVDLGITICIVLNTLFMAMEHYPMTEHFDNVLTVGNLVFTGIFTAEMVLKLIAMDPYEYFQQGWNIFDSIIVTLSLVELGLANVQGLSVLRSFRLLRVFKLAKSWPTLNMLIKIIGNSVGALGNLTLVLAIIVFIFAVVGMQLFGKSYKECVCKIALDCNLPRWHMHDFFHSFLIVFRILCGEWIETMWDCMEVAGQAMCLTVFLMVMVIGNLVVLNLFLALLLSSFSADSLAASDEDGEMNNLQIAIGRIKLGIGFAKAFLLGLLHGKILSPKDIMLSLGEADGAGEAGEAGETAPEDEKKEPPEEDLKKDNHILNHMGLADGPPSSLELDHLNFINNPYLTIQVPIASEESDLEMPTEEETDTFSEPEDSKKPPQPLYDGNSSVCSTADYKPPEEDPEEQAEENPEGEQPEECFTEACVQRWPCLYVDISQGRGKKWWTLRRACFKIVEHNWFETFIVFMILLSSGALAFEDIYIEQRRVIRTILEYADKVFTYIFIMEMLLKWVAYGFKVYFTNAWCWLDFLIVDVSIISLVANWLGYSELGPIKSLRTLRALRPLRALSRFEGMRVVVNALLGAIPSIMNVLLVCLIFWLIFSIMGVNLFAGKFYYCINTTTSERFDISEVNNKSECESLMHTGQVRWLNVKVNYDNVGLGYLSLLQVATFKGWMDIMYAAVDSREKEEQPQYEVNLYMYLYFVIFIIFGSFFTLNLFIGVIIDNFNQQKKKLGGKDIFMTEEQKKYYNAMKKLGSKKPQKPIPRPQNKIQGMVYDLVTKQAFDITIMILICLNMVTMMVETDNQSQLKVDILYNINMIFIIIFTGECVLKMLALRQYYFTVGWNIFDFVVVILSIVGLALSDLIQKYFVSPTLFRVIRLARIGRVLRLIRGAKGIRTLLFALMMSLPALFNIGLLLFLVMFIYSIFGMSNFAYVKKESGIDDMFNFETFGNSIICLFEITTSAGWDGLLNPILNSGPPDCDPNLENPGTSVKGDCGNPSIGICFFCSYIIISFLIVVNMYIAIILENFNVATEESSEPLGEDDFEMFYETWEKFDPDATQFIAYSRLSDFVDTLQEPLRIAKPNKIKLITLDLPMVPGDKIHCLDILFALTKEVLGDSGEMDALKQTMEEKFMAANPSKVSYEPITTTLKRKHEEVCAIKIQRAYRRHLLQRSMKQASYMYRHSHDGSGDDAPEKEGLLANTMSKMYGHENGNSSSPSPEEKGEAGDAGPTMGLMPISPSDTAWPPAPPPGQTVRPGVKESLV

`CC[C@H](C)[C@H](NC(=O)[C@@H](NC(=O)[C@H](CCCCN)NC(=O)[C@H](CCCNC(=N)N)NC(=O)[C@@H]1CSSC[C@@H]2NC(=O)[C@H](C)NC(=O)[C@H](CCCNC(=N)N)NC(=O)[C@H](CCCCN)NC(=O)[C@H](CO)NC(=O)[C@H](CC(=O)O)NC(=O)[C@@H]3CSSC[C@H](NC(=O)[C@H](CCC(=O)O)NC(=O)[C@H](CC(C)C)NC(=O)CNC(=O)[C@H](CCC(=O)O)NC(=O)[C@H](CSSC[C@H](NC(=O)[C@@H](N)Cc4ccc(O)cc4)C(=O)N[C@@H](CCC(N)=O)C(=O)N[C@@H](CCCCN)C(=O)N[C@@H](Cc4c[nH]c5ccccc45)C(=O)N[C@@H](CCSC)C(=O)N[C@@H](Cc4c[nH]c5ccccc45)C(=O)N[C@@H]([C@@H](C)O)C(=O)N3)NC2=O)C(=O)N[C@@H](CCCCN)C(=O)N[C@@H](CC(C)C)C(=O)N[C@@H](Cc2c[nH]c3ccccc23)C(=O)N1)[C@@H](C)CC)C(N)=O` [SEQ ID NO: 63, [Glu20]JzTx-V(1-29)] gave an IC50 (hNav1.4 [1]; read-out: IC50 against hNav1.4 in the PX assay format) of 1250 nM.
For `CC[C@@H]1NC(=O)[C@H](CC(C)C)NC(=O)CNC(=O)[C@H](CCC(=O)O)NC(=O)[C@@H]2CSSC[C@H](NC(=O)[C@@H](N)Cc3ccc(O)cc3)C(=O)N[C@@H](CCC(N)=O)C(=O)N[C@@H](CCCCN)C(=O)N[C@@H](Cc3c[nH]c4ccccc34)C(=O)N[C@@H](CCSC)C(=O)N[C@@H](Cc3c[nH]c4ccccc34)C(=O)N[C@@H]([C@@H](C)O)C(=O)N[C@H]3CSSC[C@H](NC1=O)C(=O)N[C@@H](CCCCN)C(=O)N[C@@H](CC(C)C)C(=O)N[C@@H](Cc1c[nH]c4ccccc14)C(=O)N[C@H](C(=O)N[C@@H](CCCNC(=N)N)C(=O)N[C@@H](CCCCN)C(=O)N[C@H](C(=O)N[C@H](C(N)=O)[C@@H](C)CC)[C@@H](C)CC)CSSC[C@H](NC(=O)[C@H](C)NC(=O)[C@H](CCCNC(=N)N)NC(=O)[C@H](CCCCN)NC(=O)[C@H](CO)NC(=O)[C@H](CC(=O)O)NC3=O)C(=O)N2` [compound 117], the Nav1.4/Nav1.7 (hNav1.4 [2]) was 19.
For `CC[C@H](NC(=O)[C@H](CCCCN)NC(=O)[C@H](CCCNC(=N)N)NC(=O)[C@@H]1CSSC[C@@H]2NC(=O)[C@H](C)NC(=O)[C@H](CCCNC(=N)N)NC(=O)[C@H](CCCCN)NC(=O)[C@H](CO)NC(=O)[C@H](CC(=O)O)NC(=O)[C@@H]3CSSC[C@H](NC(=O)[C@H](CCC(=O)O)NC(=O)[C@H](CC(C)C)NC(=O)CNC(=O)[C@H](CCC(=O)O)NC(=O)[C@H](CSSC[C@H](NC(=O)[C@@H](N)Cc4ccc(O)cc4)C(=O)N[C@@H](CCC(N)=O)C(=O)N[C@@H](CCCCN)C(=O)N[C@@H](Cc4c[nH]c5ccccc45)C(=O)N[C@@H](CCSC)C(=O)N[C@@H](Cc4c[nH]c5ccccc45)C(=O)N[C@@H]([C@@H](C)O)C(=O)N3)NC2=O)C(=O)N[C@@H](CCCCN)C(=O)N[C@@H](CC(C)C)C(=O)N[C@@H](Cc2c[nH]c3ccccc23)C(=O)N1)C(=O)N[C@H](C(N)=O)[C@@H](C)CC` [compound 130], the Nav1.4/Nav1.7 (hNav1.4 [2]) was 29 and 24.
`CCCC[C@@H]1NC(=O)[C@H](Cc2c[nH]c3ccccc23)NC(=O)[C@H](CCCCN)NC(=O)[C@H](CCC(N)=O)NC(=O)[C@@H](NC(=O)[C@H](Cc2ccc(O)cc2)NC(=O)[C@@H](N)Cc2cn(CCCOCCOCCOCCOCCOCCOCCOCCOCCOCCOCCN)nn2)CSSC[C@@H]2NC(=O)[C@@H]3CSSC[C@@H](C(=O)N[C@@H](CCCNC(=N)N)C(=O)N[C@@H](CCCCN)C(=O)N[C@H](C(=O)N[C@H](C(N)=O)[C@@H](C)CC)[C@@H](C)CC)NC(=O)[C@H](Cc4c[nH]c5ccccc45)NC(=O)[C@H](CC(C)C)NC(=O)[C@H](CCCCN)NC(=O)[C@H](CSSC[C@H](NC(=O)[C@H]([C@@H](C)O)NC(=O)[C@H](Cc4c[nH]c5ccccc45)NC1=O)C(=O)N[C@@H](CC(=O)O)C(=O)N[C@@H](CO)C(=O)N[C@@H](CCCCN)C(=O)N[C@@H](CCCNC(=N)N)C(=O)N[C@@H](C)C(=O)N3)NC(=O)[C@H](CCCNC(=N)N)NC(=O)[C@H](CC(C)C)NC(=O)CNC(=O)[C@H](CCC(=O)O)NC2=O` [compound 247] gave a Nav1.4/Nav1.7 (hNav1.4 [2]) of 2 and a Nav1.4/Nav1.7 (hNav1.4 [1]; ratio of PX IC50 values) of 1.
`CCCC[C@@H]1NC(=O)[C@H](Cc2c[nH]c3ccccc23)NC(=O)[C@H](CCCCN)NC(=O)[C@H](CCC(N)=O)NC(=O)[C@@H](NC(=O)[C@@H](N)Cc2cn(CCCOCCOCCOCCOCCOCCOCCOCCOCCOCCOCCN)nn2)CSSC[C@@H]2NC(=O)[C@@H]3CSSC[C@@H](C(=O)N[C@@H](CCCNC(=N)N)C(=O)N[C@@H](CCCCN)C(=O)N[C@H](C(=O)N[C@H](C(N)=O)[C@@H](C)CC)[C@@H](C)CC)NC(=O)[C@H](Cc4c[nH]c5ccccc45)NC(=O)[C@H](CC(C)C)NC(=O)[C@H](CCCCN)NC(=O)[C@H](CSSC[C@H](NC(=O)[C@H]([C@@H](C)O)NC(=O)[C@H](Cc4c[nH]c5ccccc45)NC1=O)C(=O)N[C@@H](CC(=O)O)C(=O)N[C@@H](CO)C(=O)N[C@@H](CCCCN)C(=O)N[C@@H](CCCNC(=N)N)C(=O)N[C@@H](C)C(=O)N3)NC(=O)[C@H](CCCNC(=N)N)NC(=O)[C@H](CC(C)C)NC(=O)CNC(=O)[C@H](CCC(=O)O)NC2=O` [compound 248] was tested, and the Nav1.4/Nav1.7 (hNav1.4 [2]) was 4 and 3 and the Nav1.4/Nav1.7 (hNav1.4 [1]; ratio of PX IC50 values) was 15.
Work on `CCCC[C@@H]1NC(=O)[C@H](Cc2c[nH]c3ccccc23)NC(=O)[C@H](CCCCN)NC(=O)[C@H](CCC(N)=O)NC(=O)[C@@H](NC(=O)[C@@H](N)Cc2ccc(O)cc2)CSSC[C@@H]2NC(=O)[C@@H]3CSSC[C@@H](C(=O)N[C@@H](CCCNC(=N)N)C(=O)N[C@@H](CCCCN)C(=O)N[C@H](C(=O)N[C@@H](Cc4cn(CCCOCCOCCOCCOCCOCCOCCOCCOCCOCCOCCN)nn4)C(N)=O)[C@@H](C)CC)NC(=O)[C@H](Cc4c[nH]c5ccccc45)NC(=O)[C@H](CC(C)C)NC(=O)[C@H](CCCCN)NC(=O)[C@H](CSSC[C@H](NC(=O)[C@H]([C@@H](C)O)NC(=O)[C@H](Cc4c[nH]c5ccccc45)NC1=O)C(=O)N[C@@H](CC(=O)O)C(=O)N[C@@H](CO)C(=O)N[C@@H](CCCCN)C(=O)N[C@@H](CCCNC(=N)N)C(=O)N[C@@H](C)C(=O)N3)NC(=O)[C@H](CCCNC(=N)N)NC(=O)[C@H](CC(C)C)NC(=O)CNC(=O)[C@H](CCC(=O)O)NC2=O` [compound 270] yielded a Nav1.4/Nav1.7 (hNav1.4 [2]) of 2.
`CCCC[C@@H]1NC(=O)[C@H](Cc2c[nH]c3ccccc23)NC(=O)[C@H](CCCCN)NC(=O)[C@H](CCC(N)=O)NC(=O)[C@@H](NC(=O)[C@H](Cc2ccc(O)cc2)NC(=O)[C@H](C)N)CSSC[C@@H]2NC(=O)[C@@H]3CSSC[C@@H](C(=O)N[C@@H](CCCNC(=N)N)C(=O)N[C@@H](CCCCN)C(=O)N[C@H](C(=O)N[C@H](C(N)=O)[C@@H](C)CC)[C@@H](C)CC)NC(=O)[C@H](Cc4c[nH]c5ccccc45)NC(=O)[C@H](CC(C)C)NC(=O)[C@H](CCCCN)NC(=O)[C@H](CSSC[C@H](NC(=O)[C@H]([C@@H](C)O)NC(=O)[C@H](Cc4c[nH]c5ccccc45)NC1=O)C(=O)N[C@@H](CC(=O)O)C(=O)N[C@@H](CO)C(=O)N[C@@H](CCCCN)C(=O)N[C@@H](CCCNC(=N)N)C(=O)N[C@@H](C)C(=O)N3)NC(=O)[C@H](CCCNC(=N)N)NC(=O)[C@H](CC(C)C)NC(=O)CNC(=O)[C@H](CCC(=O)O)NC2=O` [compound 357] gave an IC50 (hNav1.7) of 0.307 nM.
`C#CC[C@@H]1NC(=O)[C@@H]2CSSC[C@H](NC(=O)[C@H](Cc3ccc(O)cc3)NC(=O)[C@@H](N)CC#N)C(=O)N[C@@H](CCC(N)=O)C(=O)N[C@@H](CCCCN)C(=O)N[C@@H](Cc3c[nH]c4ccccc34)C(=O)N[C@@H](CCCC)C(=O)N[C@@H](Cc3c[nH]c4ccccc34)C(=O)N[C@@H]([C@@H](C)O)C(=O)N[C@H]3CSSC[C@H](NC(=O)[C@H](CCC(=O)O)NC(=O)[C@H](CC(C)C)NC(=O)CNC1=O)C(=O)N[C@@H](CCCCN)C(=O)N[C@@H](CC(C)C)C(=O)N[C@@H](Cc1c[nH]c4ccccc14)C(=O)N[C@H](C(=O)N[C@@H](CCCNC(=N)N)C(=O)N[C@@H](CCCCN)C(=O)N[C@H](C(=O)N[C@H](C(N)=O)[C@@H](C)CC)[C@@H](C)CC)CSSC[C@H](NC(=O)[C@H](C)NC(=O)[C@H](CCCNC(=N)N)NC(=O)[C@H](CCCCN)NC(=O)[C@H](CO)NC(=O)[C@H](CC(=O)O)NC3=O)C(=O)N2` [compound 396] was tested, and the Nav1.4/Nav1.7 (hNav1.4 [1]; ratio of PX tonic IC50 values) was 98.
`C#CC[C@H](N)C(=O)NCCCC[C@@H]1NC(=O)[C@H](CCCNC(=N)N)NC(=O)[C@H](CCCCN)NC(=O)[C@H](CO)NC(=O)[C@H](CC(=O)O)NC(=O)[C@@H]2CSSC[C@@H]3NC(=O)[C@H](CCCNC(=N)N)NC(=O)[C@H](CC(C)C)NC(=O)CNC(=O)[C@H](CCC(=O)O)NC(=O)[C@H](CSSC[C@H](NC(=O)[C@H](Cc4ccc(O)cc4)NC(=O)[C@@H](N)CCC)C(=O)N[C@@H](CCC(N)=O)C(=O)N[C@@H](CCCCN)C(=O)N[C@@H](Cc4c[nH]c5ccccc45)C(=O)N[C@@H](CCCC)C(=O)N[C@@H](Cc4c[nH]c5ccccc45)C(=O)N[C@@H]([C@@H](C)O)C(=O)N2)NC(=O)[C@H](CSSC[C@@H](C(=O)N[C@@H](CCCNC(=N)N)C(=O)N[C@@H](CCCCN)C(=O)N[C@H](C(=O)N[C@H](C(N)=O)[C@@H](C)CC)[C@@H](C)CC)NC(=O)[C@H](Cc2c[nH]c4ccccc24)NC(=O)[C@H](CC(C)C)NC(=O)[C@H](CCCCN)NC3=O)NC1=O` [compound 431] was tested, and the IC50 (hNav1.4 [1]; PatchXpress, tonic block, read-out: PX hNav1.4 Tonic IC50) was 20.5 nM and the Nav1.4/Nav1.7 (hNav1.4 [1]; ratio of PX tonic IC50 values) was 13.
Work on `CCC[C@H](N)C(=O)N[C@@H](Cc1ccc(O)cc1)C(=O)N[C@H]1CSSC[C@@H]2NC(=O)[C@@H]3CSSC[C@@H](C(=O)N[C@@H](CCCNC(=N)N)C(=O)N[C@@H](CCCCN)C(=O)N[C@H](C(=O)N[C@H](C(N)=O)[C@@H](C)CC)[C@@H](C)CC)NC(=O)[C@H](Cc4c[nH]c5ccccc45)NC(=O)[C@H](CC(C)C)NC(=O)[C@H](CCCCN)NC(=O)[C@H](CSSC[C@H](NC(=O)[C@H]([C@@H](C)O)NC(=O)[C@H](Cc4c[nH]c5ccccc45)NC(=O)[C@H](CC(C)C)NC(=O)[C@H](Cc4c[nH]c5ccccc45)NC(=O)[C@H](CCCCN)NC(=O)[C@H](CCC(N)=O)NC1=O)C(=O)N[C@@H](CC(=O)O)C(=O)N[C@@H](CO)C(=O)N[C@@H](CCCCN)C(=O)N[C@@H](CCCNC(=N)N)C(=O)N[C@@H](CCCCNC(=O)[C@@H](N)Cc1cn(CCOCCOCCOCCOCCOCCOCCOCCOCCOCCOCCN)nn1)C(=O)N3)NC(=O)[C@H](CCCNC(=N)N)NC(=O)[C@H](CC(C)C)NC(=O)CNC(=O)[C@H](CCC(=O)O)NC2=O` [compound 446] yielded a Nav1.4/Nav1.7 (hNav1.4 [1]; ratio of PX IC50 values) of 11.
